Test: in vitro
Conditions: human, hela cells, % viability

Question: With `O=C(c1csc(-c2ccccc2)n1)N1CCn2nc(C3CC3)cc2C1` [CBK304676] as the molecule, how does the viability at 28.5 h, 10 µM read?
Answer: Its viability at 28.5 h, 10 µM is 95.9%.

Question: Which viability at 28.5 h, 10 µM does the source give for `Cc1cnccc1N1CCN(C(=O)CCCOc2ccccc2)CC1` [CBK304677] here?
Answer: The viability at 28.5 h, 10 µM was 94.8%.

Question: For `Cc1cc(C)n(CCC(=O)N2CCCCC2C(=O)O)n1` (centres unmarked) [CBK304678], which viability at 28.5 h, 10 µM is on record?
Answer: Its viability at 28.5 h, 10 µM is 103%.

Question: With `CCOC(=O)N1CCN(S(=O)(=O)c2ccc3[nH]c(=O)oc3c2)CC1` [CBK304679] as the molecule, how does the viability at 28.5 h, 10 µM read?
Answer: The viability at 28.5 h, 10 µM was 105%.

Question: For `Cc1ccn(-c2ccc(N3CCNCC3)nn2)n1` [CBK304680], which viability at 28.5 h, 10 µM is on record?
Answer: Its viability at 28.5 h, 10 µM is 97.4%.

Question: For `CC(=O)N1CCc2c(sc(NC(=O)c3ccccc3C)c2C#N)C1` [CBK304681], which viability at 28.5 h, 10 µM is on record?
Answer: The viability at 28.5 h, 10 µM was 78.7%.

Question: Which viability at 28.5 h, 10 µM does the source give for `CC1CCc2c(sc(NC(=O)c3ccn(C)n3)c2C#N)C1` (centres unmarked) [CBK304682] here?
Answer: The viability at 28.5 h, 10 µM was 89.8%.

Question: With `CC1(C(=O)NS(=O)(=O)c2cccc(-c3nnco3)c2)CC1` [CBK304683] as the molecule, how does the viability at 28.5 h, 10 µM read?
Answer: The viability at 28.5 h, 10 µM was 106%.

Question: Which viability at 28.5 h, 10 µM does the source give for `Cc1sc2ncn(CC(=O)NCCc3c[nH]cn3)c(=O)c2c1C` [CBK304685] here?
Answer: The viability at 28.5 h, 10 µM was 99.3%.

Question: For `Cc1ccnc(SCC(=O)c2cc(C)n(C3CC3)c2C)n1` [CBK304686], which viability at 28.5 h, 10 µM is on record?
Answer: The viability at 28.5 h, 10 µM was 97.6%.

Question: For `Cn1nccc1CN1CCOC(c2nc(C(C)(C)C)cs2)C1` (centres unmarked) [CBK304690], which viability at 28.5 h, 10 µM is on record?
Answer: Its viability at 28.5 h, 10 µM is 93.7%.

Question: With `Cc1cc(N2CCOC(c3cccs3)C2)ccn1` (centres unmarked) [CBK304691] as the molecule, how does the viability at 28.5 h, 10 µM read?
Answer: Its viability at 28.5 h, 10 µM is 96.2%.

Question: Which viability at 28.5 h, 10 µM does the source give for `CCN(CC)CCn1c(NC(=O)CCC2CCNC2)nc2ccccc21` (centres unmarked) [CBK304693] here?
Answer: Its viability at 28.5 h, 10 µM is 92.3%.

Question: For `Cc1cc(-c2csc(CC(C)n3cc(Cl)cn3)n2)on1` (centres unmarked) [CBK304700], which viability at 28.5 h, 10 µM is on record?
Answer: The viability at 28.5 h, 10 µM was 91.3%.

Question: With `Cn1cc(CN2CCC(CNc3ccccn3)C2)cn1` (centres unmarked) [CBK304705] as the molecule, how does the viability at 28.5 h, 10 µM read?
Answer: The viability at 28.5 h, 10 µM was 101%.

Question: With `Cc1nc(C)c(-c2csc(CC(C)n3cc(Cl)cn3)n2)o1` (centres unmarked) [CBK304710] as the molecule, how does the viability at 28.5 h, 10 µM read?
Answer: Its viability at 28.5 h, 10 µM is 106%.

Question: For `CCOC(=O)c1nc(C2CCN(c3cccc(F)c3C#N)CC2)n[nH]1` [CBK304711], which viability at 28.5 h, 10 µM is on record?
Answer: The viability at 28.5 h, 10 µM was 119%.

Question: For `CC1CC1c1nnc(C2(c3ccc(Br)cc3)CCOCC2)o1` (centres unmarked) [CBK304712], which viability at 28.5 h, 10 µM is on record?
Answer: Its viability at 28.5 h, 10 µM is 94.1%.

Question: Which viability at 28.5 h, 10 µM does the source give for `Cn1nc(C(C)(C)C)c2cc(C(=O)N3CCCc4occc4C3)cnc21` [CBK304713] here?
Answer: Its viability at 28.5 h, 10 µM is 97.7%.

Question: For `COc1cc(CNC2CCCc3c2cnn3C)c(O)c(C(C)(C)C)c1` (centres unmarked) [CBK304716], which viability at 28.5 h, 10 µM is on record?
Answer: Its viability at 28.5 h, 10 µM is 84.4%.

Question: For `CCn1cc(S(=O)(=O)Nc2cccc(CCCC(=O)O)c2)cn1` [CBK304717], which viability at 28.5 h, 10 µM is on record?
Answer: The viability at 28.5 h, 10 µM was 102%.

Question: For `CN(c1cccc(C#N)c1)C1CCN(c2nccn(C)c2=O)C1` (centres unmarked) [CBK304718], which viability at 28.5 h, 10 µM is on record?
Answer: The viability at 28.5 h, 10 µM was 105%.

Question: With `COc1ccc(CC(=O)N2CCCC2c2nnc3ccccn23)cc1` (centres unmarked) [CBK304719] as the molecule, how does the viability at 28.5 h, 10 µM read?
Answer: Its viability at 28.5 h, 10 µM is 117%.

Question: With `CN(c1cccc(C#N)c1)C1CCN(c2ncnc3c2cnn3C)C1` (centres unmarked) [CBK304720] as the molecule, how does the viability at 28.5 h, 10 µM read?
Answer: The viability at 28.5 h, 10 µM was 87.4%.

Question: Which viability at 28.5 h, 10 µM does the source give for `COc1cc(CNCc2cnn(C)c2)c(O)c(C(C)(C)C)c1` [CBK304721] here?
Answer: Its viability at 28.5 h, 10 µM is 85.8%.

Question: With `CCOCC(=O)N(C)C(CO)c1cc(OC)ccc1Br` (centres unmarked) [CBK304722] as the molecule, how does the viability at 28.5 h, 10 µM read?
Answer: The viability at 28.5 h, 10 µM was 90%.

Question: Which viability at 28.5 h, 10 µM does the source give for `Fc1cc(Br)c(CNCc2ccno2)c(N2CCCCC2)c1F` [CBK304723] here?
Answer: Its viability at 28.5 h, 10 µM is 86.8%.

Question: With `Nc1nc(O)cc(C2CCN(CCOc3ccccc3F)C2)n1` (centres unmarked) [CBK304726] as the molecule, how does the viability at 28.5 h, 10 µM read?
Answer: The viability at 28.5 h, 10 µM was 102%.

Question: For `CCc1ccc2c(c1)C(CCNC(=O)c1ncccc1F)C(=O)N2` (centres unmarked) [CBK304727], which viability at 28.5 h, 10 µM is on record?
Answer: The viability at 28.5 h, 10 µM was 106%.

Question: For `CCc1ccc2c(c1)C(CCNC(=O)c1cscc1C(F)(F)F)C(=O)N2` (centres unmarked) [CBK304728], which viability at 28.5 h, 10 µM is on record?
Answer: Its viability at 28.5 h, 10 µM is 82.5%.

Question: With `O=S(=O)(c1sccc1F)N1CCOCC1c1cccc(F)c1` (centres unmarked) [CBK304730] as the molecule, how does the viability at 28.5 h, 10 µM read?
Answer: The viability at 28.5 h, 10 µM was 82.6%.

Question: For `N#Cc1cnccc1N1CC2COCCC2(C(=O)N2CCCC2)C1` (centres unmarked) [CBK304731], which viability at 28.5 h, 10 µM is on record?
Answer: Its viability at 28.5 h, 10 µM is 83%.

Question: With `CC(C)n1cc(CN2CCNC(=O)C2c2ccccc2C(F)(F)F)nn1` (centres unmarked) [CBK304732] as the molecule, how does the viability at 28.5 h, 10 µM read?
Answer: The viability at 28.5 h, 10 µM was 91.6%.

Question: With `Cc1c(C(=O)N2CCC(CN)C2)nnn1-c1ccc2ncccc2c1` (centres unmarked) [CBK304734] as the molecule, how does the viability at 28.5 h, 10 µM read?
Answer: Its viability at 28.5 h, 10 µM is 101%.

Question: For `CC1CN(Cc2cccc(CNc3nccnc3C#N)c2)CCO1` (centres unmarked) [CBK304736], which viability at 28.5 h, 10 µM is on record?
Answer: Its viability at 28.5 h, 10 µM is 94%.

Question: Which viability at 28.5 h, 10 µM does the source give for `COCc1nc2n(n1)CC(NC1CCc3ccccc3CC1)CC2` (centres unmarked) [CBK304737] here?
Answer: Its viability at 28.5 h, 10 µM is 96.1%.

Question: For `Cc1c(C(=O)N(CC(=O)O)C2CC2)nnn1-c1ccc(Cl)cc1F` [CBK304738], which viability at 28.5 h, 10 µM is on record?
Answer: Its viability at 28.5 h, 10 µM is 91.1%.

Question: With `CC(C)(C#N)c1ccccc1CN1CCCCC1c1[nH]ncc1C(N)=O` (centres unmarked) [CBK304740] as the molecule, how does the viability at 28.5 h, 10 µM read?
Answer: Its viability at 28.5 h, 10 µM is 108%.

Question: With `CC1=CCCN(C(=O)C23CCOCC2CN(c2ncccn2)C3)C1` (centres unmarked) [CBK304743] as the molecule, how does the viability at 28.5 h, 10 µM read?
Answer: The viability at 28.5 h, 10 µM was 101%.

Question: Which viability at 28.5 h, 10 µM does the source give for `N#Cc1cccnc1N1CC2COCCC2(C(=O)N2CCC=C(F)C2)C1` (centres unmarked) [CBK304744] here?
Answer: Its viability at 28.5 h, 10 µM is 91.5%.

Question: Which viability at 28.5 h, 10 µM does the source give for `NC1CCCN(C(=O)c2ccc(Oc3cccc(Br)c3)nc2)C1` (centres unmarked) [CBK304747] here?
Answer: Its viability at 28.5 h, 10 µM is 92.6%.

Question: With `Cc1csc(N2CCC(NC3COc4ccc(F)cc4C3)CC2)n1` (centres unmarked) [CBK304751] as the molecule, how does the viability at 28.5 h, 10 µM read?
Answer: The viability at 28.5 h, 10 µM was 101%.

Question: Which viability at 28.5 h, 10 µM does the source give for `CCOc1cc(NC2CCN(C(=O)Cc3ccncc3)CC2)ncn1` [CBK304752] here?
Answer: The viability at 28.5 h, 10 µM was 101%.

Question: Which viability at 28.5 h, 10 µM does the source give for `Cc1noc(C2(O)CCN(CCc3ccc(F)c(F)c3)C2)n1` (centres unmarked) [CBK304753] here?
Answer: Its viability at 28.5 h, 10 µM is 93.9%.

Question: For `CC1CN(c2cc(CO)c(F)cn2)CC2(CCOC2C)O1` (centres unmarked) [CBK304754], which viability at 28.5 h, 10 µM is on record?
Answer: Its viability at 28.5 h, 10 µM is 101%.

Question: Which viability at 28.5 h, 10 µM does the source give for `CCOCC1CN(c2cc(CO)c(F)cn2)CCO1` (centres unmarked) [CBK304756] here?
Answer: Its viability at 28.5 h, 10 µM is 92%.

Question: For `CCC1CN(c2cc(CO)c(F)cn2)CC2(CCOC2)O1` (centres unmarked) [CBK304757], which viability at 28.5 h, 10 µM is on record?
Answer: Its viability at 28.5 h, 10 µM is 92.9%.

— PMC12040169 (PLOS Biology, 2025)
